Assay results reported in patent publication US20220296535A1, “Antibacterial Dosage Regime Using Cannabinoids” (Botanix Pharmaceuticals Limited, priority 2019, published 2022).
≈ marks a conversion by molar mass, not a printed value. Where “and” joins values, the source holds several entries; their conditions need not be identical. Equal values may be shown once. Where a name gives a salt, the structure may show the parent alone. Read-outs that look alike come from different tables or passages of the source.

Tests used:
[1] = tested on: S. aureus MSSA (26 strains); assay: MIC50/MIC90 micro-broth dilution, MSSA strains
[2] = tested on: 132 strains of Staphylococcus aureus (106 MRSA and 26 MSSA strains); assay: MIC50/MIC90 micro-broth dilution, all strains
S. aureus ATCC 43300 = assay: Anaerobic MIC micro-broth dilution; assay type: cell-based, Staphylococcus aureus
P. acnes ATCC 6919 = assay: Anaerobic MIC micro-broth dilution; assay type: cell-based, Cutibacterium acnes (formerly Propionibacterium acnes)
[3] = tested on: Staphylococcus aureus MRSA ATCC 43300 biofilm; assay: Biofilm minimum inhibitory concentration (Biofilm MIC), crystal violet OD590; assay type: cell-based; details: two technical replicates, ≥70% inhibition OD590; for Biofilm MIC (TSB + 5% Gluc) 07/112/18: first biological replicate; for Biofilm MIC (TSB + 5% Gluc) 14/112/18: second biological replicate
Method: (§1) The collaborator supplied sample as dry material. A stock solution at 10 mg/mL in neat DMSO (11.2 mg in 1.12 mL of DMSO) was prepared. The highest concentration tested in the assay was 128 μg/mL and 2% DMSO as a final concentration using 1/20 dilution to achieve these concentrations.
Bacteria (Staphylococcus aureus, ATCC 43300; MRSA) was cultured on Tryptic Soy Broth (TSB, BD, Cat. No. 211825) at 37° C. overnight, then it was diluted 1:100 in fresh TSB supplemented with 5% glucose. 100 μL were added across the 96-well of polystyrene (PS) (Corning; Cat. No. 3370) plate, leaving row H as media Control. Plates were incubated at 37° C. for 48 h to generate the biofilm. The plates were prepared in duplicate.
The antibiotic controls and CBD were serially diluted in TSB with 5% glucose two-fold across the wells of polystyrene (PS) 96-well plates (Corning; Cat. No. 3370), plated in duplicate. All plates had flat bottom wells and were covered with low-evaporation lids.
48 h after incubation, bacteria plates were carefully washed three times with 200 μL/well of saline solution (0.9% NaCl, Baxter Healthcare; Cat. No. AHF7124) using manual pipette to remove the planktonic cells but leave the biofilm adhered to the plate wells. Then, 100 μL of diluted controls and CBD were transferred into the washed plates containing the biofilm. Then, these plates were incubated at 37° C. for 24 h.
Next day, plates were washed three times with saline solution, then fixed with 100 μL/well of 99% methanol for 15 minutes. Once the biofilm was fixed, 100 μL/well 0.1% Crystal Violet Stain (Sigma; Cat No. C0775-25G) was added for 20 minutes and used as indicator of biofilm formation, followed by three times washing and dry well. To dissolve the crystal violet, 150 μL/well of methanol was added to allow for biofilm MIC analysis.
The biofilm formation was determined by optical density read at 590 nm (OD590). The percentage of biofilm formation was evaluated comparing the average, standard deviation and percentage of confidence of the media control (Row H) against the rest of the plate.
Analysis was performed using Microsoft Excel.

[4] = tested on: A. acidipropionici ATCC 25562; assay: Anaerobic MIC micro-broth dilution; assay type: cell-based, Acidipropionibacterium acidipropionici
[5] = tested on: Staphylococcus aureus ATCC 43300; assay: Broth MIC (Example 1); assay type: cell-based; details: for MIC: Staphylococcus aureus
Method: as §1

[6] = tested on: S. aureus MRSA (106 strains); assay: MIC50/MIC90 micro-broth dilution, MRSA strains; assay type: cell-based, Staphylococcus aureus
C. granulosum ATCC 25564 = assay: Anaerobic MIC micro-broth dilution; assay type: cell-based, Cutibacterium granulosum; details: Cutibacterium granulosum, ATCC25564, 48 h
[7] = tested on: high-level mupirocin-resistant isolate 329; assay: MIC microtiter broth dilution (Example 9); assay type: cell-based; details: Staphylococcus aureus; MRSA strain 329
Method: (§2) Strains used: ATCC 29213 (standard control), ATCC 43300, low-level mupirocin-resistant isolate 815, high-level mupirocin-resistant isolage 329, high-level mupirocin-resistant isolate 993.
(§3) All strains prepared as described in “Bacterial Preparation” section above with the following differences: inocula were prepared in Müller-Hinton broth (MHB) rather than RPMI, and were diluted 1:10,000 following wash for an inoculum concentration of ˜5×10^4 CFU/mL.
(§4) Using a multichannel pipet, 100 μL of MHB was added to each of the wells of the 96-well plates (round bottom/U-bottom). Stock solutions of antibiotic were prepared at 2× the highest assay concentration (mupirocin at 4096 μg/mL and CBD at 100 μg/mL). 100 μL of this broth was added to each of the broth-containing wells in column 1 of the plate, and mixed by pipetting the full volume 6-7 times, for a final concentration of 2048 μg/mL mupirocin or 50 μg/mL CBD. […]
(§5) 5 μL of each inoculum was added to the appropriate wells (various wells were left without inoculation and used to correct the absorbance of the CBD-containing wells and as negative controls). […] Plate was read by a plate reader at 600 nm.
(§6) Inhibition was determined to have occurred in the first well with a difference in OD600 of <0.05 from the uninfected wells with the same concentration of antimicrobial, provided inhibition growth continued through all higher concentrations. […]

[8] = tested on: high-level mupirocin-resistant isolate 993; assay: MIC microtiter broth dilution (Example 9); assay type: cell-based; details: Staphylococcus aureus; MRSA strain 993
Method: as §2, §3, §4, §5, §6

[9] = S. aureus ATCC 43300, anaerobic chamber, BHI, 48 h
[10] = A. acidipropionici ATCC 25562, anaerobic chamber, BHI, 48 h
[11] = ATCC43300, read-out: Broth MIC, TSB + 5% Glucose
[12] = Cutibacterium acnes, ATCC6919, 48 h
[13] = Acidipropionibacterium acidipropionici, ATCC25562, 48 h
[14] = ATCC43300, read-out: Broth MIC, CAMHB

Structure (SMILES)	MIC range ([2]; S. aureus spp. ALL)	Biofilm MIC (TSB + 5% Gluc) 07/112/18 [3]	Biofilm MIC (TSB + 5% Gluc) 14/112/18 [3]	MIC50 ([1]; Staphylococcus aureus, MSSA)	MIC90 ([1]; Staphylococcus aureus, MSSA)	MIC50 ([2]; Staphylococcus aureus)	MIC90 ([2]; Staphylococcus aureus)	MIC [5, 11]	MIC50 ([6]; Staphylococcus aureus, MRSA)	MIC90 ([6]; Staphylococcus aureus, MRSA)	MIC (C. granulosum ATCC 25564)	MIC [5, 14]	other results
CCC[C@@H]1C[C@@H](C(=O)N[C@@H]([C@H]2O[C@H](SC)[C@H](O)[C@@H](O)[C@H]2O)[C@H](C)Cl)N(C)C1.Cl.O [Clindamycin, Clindamycin hydrochloride monohydrate]	0.03 to 64 µg/mL	>64 µg/mL	>64 µg/mL										MIC50 ([1]; S. aureus MSSA): 0.125 µg/mL; MIC90 ([1]; S. aureus MSSA): 0.1875 µg/mL; MIC50 ([2]; S. aureus spp. ALL): 0.125 µg/mL; MIC90 ([2]; S. aureus spp. ALL): 64 µg/mL; MIC (S. aureus ATCC 43300; [9]): >32 µg/mL; MIC (P. acnes ATCC 6919; P. acnes ATCC 6919, anaerobic chamber, BHI, 48 h): 0.125 µg/mL; MIC [4, 10]: 0.125 µg/mL; Broth MIC ([5]; CAMHB): >64 µg/mL; Broth MIC ([5]; TSB + 5% Glucose): >64 µg/mL; MIC50 ([6]; S. aureus MRSA): 0.125 µg/mL; MIC90 ([6]; S. aureus MRSA): 64 µg/mL
CCCCCCCCCC(=O)N[C@@H](Cc1c[nH]c2ccccc12)C(=O)N[C@H](CC(N)=O)C(=O)N[C@@H](CC(=O)O)C(=O)N[C@@H]1C(=O)NCC(=O)N[C@@H](CCCN)C(=O)N[C@@H](CC(=O)O)C(=O)N[C@H](C)C(=O)N[C@@H](CC(=O)O)C(=O)NCC(=O)N[C@H](CO)C(=O)N[C@@H]([C@H](C)CC(=O)O)C(=O)N[C@@H](CC(=O)c2ccccc2N)C(=O)O[C@@H]1C [Daptomycin, reference compound]	0.5 to 16 µg/mL	32 µg/mL and 16 µg/mL	16 µg/mL	2 µg/mL (≈ 1.23 µM)	2 µg/mL (≈ 1.23 µM)	2 µg/mL (≈ 1.23 µM)	4 µg/mL (≈ 2.47 µM)	32 µg/mL	2 µg/mL (≈ 1.23 µM)	4 µg/mL (≈ 2.47 µM)			
CC[C@H]1OC(=O)[C@H](C)[C@@H](O[C@H]2C[C@@](C)(OC)[C@@H](O)[C@H](C)O2)[C@H](C)[C@@H](O[C@@H]2O[C@H](C)C[C@H](N(C)C)[C@H]2O)[C@](C)(O)C[C@@H](C)C(=O)[C@H](C)[C@@H](O)[C@]1(C)O [Erythromycin]											0.125 µg/mL (≈ 0.17 µM)		MIC (S. aureus ATCC 43300; Staphylococcus aureus, ATCC43300, 48 h): > 32 µg/mL; MIC [4, 10]: 4/2
C/C(=C\C(=O)OCCCCCCCCC(=O)O)C[C@@H]1OC[C@H](C[C@@H]2O[C@H]2[C@@H](C)[C@H](C)O)[C@@H](O)[C@H]1O [Mupirocin]	0.125 to 64 µg/mL	0.25 µg/mL and 0.125 µg/mL	0.25 µg/mL	0.5 µg/mL (≈ 0.999 µM)	0.5 µg/mL (≈ 0.999 µM)	0.5 µg/mL (≈ 0.999 µM)	0.5 µg/mL (≈ 0.999 µM)	0.25 µg/mL	0.5 µg/mL (≈ 0.999 µM)	0.5 µg/mL (≈ 0.999 µM)	> 32 µg/mL	0.25 µg/mL (≈ 0.499 µM)	MIC [7]: 256 to 2050 µg/mL (≈ 511 to 4090 µM); MIC [8]: 256 to 2050 µg/mL (≈ 511 to 4090 µM); MIC (P. acnes ATCC 6919; [12]): > 32 µg/mL; MIC [4, 13]: > 32 µg/mL
Cc1onc(-c2ccccc2)c1C(=O)N[C@@H]1C(=O)N2[C@@H]1SC(C)(C)[C@@H]2C(=O)O [Oxacillin sodium salt hydrate]													MIC (S. aureus ATCC 43300; [9]): 64/16/8; MIC [4, 13]: 2 µg/mL
COc1cc(Cc2cnc(N)nc2N)cc(OC)c1OC [Trimethoprim]		8 µg/mL	16 µg/mL and >64 µg/mL					4 µg/mL				1 µg/mL (≈ 3.44 µM)	
CN[C@H](CC(C)C)C(=O)N[C@H]1C(=O)N[C@@H](CC(N)=O)C(=O)N[C@H]2C(=O)N[C@H]3C(=O)N[C@H](C(=O)N[C@H](C(=O)O)c4cc(O)cc(O)c4-c4cc3ccc4O)[C@H](O)c3ccc(c(Cl)c3)Oc3cc2cc(c3O[C@@H]2O[C@H](CO)[C@@H](O)[C@H](O)[C@H]2O[C@H]2C[C@](C)(N)[C@H](O)[C@H](C)O2)Oc2ccc(cc2Cl)[C@H]1O [Vancomycin]	0.5 to 64 µg/mL	4 µg/mL	4 µg/mL	1 µg/mL (≈ 0.69 µM)	1 µg/mL (≈ 0.69 µM)	1 µg/mL (≈ 0.69 µM)	2 µg/mL (≈ 1.38 µM)	1 µg/mL	1 µg/mL (≈ 0.69 µM)	2 µg/mL (≈ 1.38 µM)	0.25 µg/mL (≈ 0.173 µM)	0.5 µg/mL (≈ 0.345 µM)	MIC (P. acnes ATCC 6919; [12]): 0.25 µg/mL (≈ 0.173 µM)
